According to ChEMBL document CHEMBL1153284, “N-(3-fluoro-4-(2-arylthieno[3,2-b]pyridin-7-yloxy)phenyl)-2-oxo-3-phenylimidazolidine-1-carboxamides: a novel series of dual c-Met/VEGFR2 receptor tyrosine kinase inhibitors” (Bioorg Med Chem Lett, 2009):
Calls of active or inactive are those of the source. The calls are words filed in the database; no cut-off is given here.

Legend:
[1] = molecular target: T1, Hepatocyte growth factor receptor (Homo sapiens, UniProt P08581); details: 293t
Description: Inhibition of TPR-fused Met phosphorylation expressed in human 293T cells by ELISA

[2] = molecular target: Vascular endothelial growth factor receptor 2 (Homo sapiens, UniProt P35968); test: Inhibition of GST-fused recombinant VGFR2 catalytic domain expressed in baculovirus-infected Sf9 cells after 10 mins by DELFIA assay
[3] = molecular target: T1, Hepatocyte growth factor receptor; test: biochemical
Description: Inhibition of GST-fused recombinant c-Met catalytic domain expressed in baculovirus-infected Trichoplusia ni Hi5 cells after 30 mins by DELFIA assay

[4] = Half life in rat at 2.17 to 2.86 mg/kg, iv; format: ADME, organism-based; design: dose 2.17-2.86 mg/kg, route intravenous; details: in vivo
[5] = Bioavailability in rat at 4.28 to 4.98 mg/kg, po; format: ADME, organism-based; details: in vivo
MKN-45 [6] = test: Antitumor activity against human MKN45 cells xenografted in mouse assessed as regression of tumor growth at 40 mg/kg, po administered once daily for 12 days; format: functional, organism-based; design: dose 40 mg/kg
HUVEC [7] = test: Inhibition of VEGF-dependent proliferation in HUVEC; format: functional, cell-based; details: Homo sapiens
MKN-45 [8] = test: Antiproliferative activity against human MKN45 cells expressing c-Met after 72 hrs by MTT assay; format: functional, cell-based; details: MKN-45, 72 h
[9] = molecular target: Angiopoietin-1 receptor (Homo sapiens) (UniProt Q02763); test: Inhibition of Tie2 at 100 nM
[10] = Inhibition of VEGF-dependent ERK phosphorylation
[11] = molecular target: Vascular endothelial growth factor receptor 3 (Homo sapiens) (UniProt P35916); test: Inhibition of VEGFR3 at 100 nM
HUVEC [12] = test: Inhibition of tubule growth in HUVEC by angiogenesis assay; format: functional, cell-based; details: Homo sapiens
[13] = molecular target: Macrophage-stimulating protein receptor (Homo sapiens) (UniProt Q04912); test: Inhibition of Ron at 100 nM
HUVEC [14] = test: Inhibition of tubule formation in HUVEC assessed as tubule length at 100 nM by angiogenesis assay in presence of VEGF; format: functional; details: Homo sapiens
HCT-116 = test: Antiproliferative activity against c-Met-independent human HCT116 cells after 72 hrs by MTT assay; format: functional, cell-based; details: HCT-116, 72 h
HOS-TE85 = test: Antiproliferative activity against human MNNG-HOS cells expressing TPR-fused Met after 72 hrs by MTT assay; format: functional, cell-based; details: HOS-TE85, 72 h
[15] = molecular target: Vascular endothelial growth factor receptor 1 (Homo sapiens) (UniProt P17948); test: Inhibition of VEGFR1 at 100 nM
MDA-MB-231 = test: Antiproliferative activity against c-Met-independent human MDA-MB-231 cells after 72 hrs by MTT assay; format: functional, cell-based; details: MDA-MB-231, 72 h
[16] = molecular target: Receptor-type tyrosine-protein kinase FLT3 (Homo sapiens) (UniProt P36888); test: Inhibition of FLT3 at 100 nM
[17] = molecular target: T2, Aurora kinase A (Homo sapiens) (UniProt O14965); test: Inhibition of Aurora A at 100 nM
T2 sequence (whole entry): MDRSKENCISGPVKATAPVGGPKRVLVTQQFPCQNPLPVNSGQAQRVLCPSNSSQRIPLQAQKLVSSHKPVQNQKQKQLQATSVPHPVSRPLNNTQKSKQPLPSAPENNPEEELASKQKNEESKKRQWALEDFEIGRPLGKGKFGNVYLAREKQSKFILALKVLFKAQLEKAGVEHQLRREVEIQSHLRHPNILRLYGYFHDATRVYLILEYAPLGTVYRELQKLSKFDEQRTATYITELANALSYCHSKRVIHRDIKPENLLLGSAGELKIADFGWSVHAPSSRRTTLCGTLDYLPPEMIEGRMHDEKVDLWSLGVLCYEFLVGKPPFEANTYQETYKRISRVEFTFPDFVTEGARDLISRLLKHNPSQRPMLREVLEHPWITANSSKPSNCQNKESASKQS

IC50 [1]	IC50 [2]	IC50 [3]	SMILES	also measured
–	0.026 µM	–	Cn1cnc(-c2cc3nccc(Oc4ccc(NC(=S)NC(=O)Cc5ccccc5)cc4F)c3s2)c1	half-life [4]: 1.2 h
> 10 µM	1.8 µM	2 µM	Cn1cnc(-c2cc3nccc(Oc4ccc(NC(=O)N5CCN(c6ccccc6)C5=S)cc4F)c3s2)c1	–
–	0.008 µM	–	Cn1cnc(-c2cc3nccc(Oc4ccc(NC(=O)N5CCN(c6ccccc6)C5=O)cc4F)c3s2)c1	bioavailability [5]: 13%; half-life [4]: 2.3 h
1.44 µM	0.057 µM	1 µM	CN(C(=O)C1(C(=O)Nc2ccc(Oc3ccnc4cc(-c5cn(C)cn5)sc34)c(F)c2)CC1)c1ccccc1	–
–	0.037 µM	0.025 µM	Cn1cnc(-c2cc3nccc(Oc4ccc(NC(=O)NC(=O)Cc5ccccc5)cc4F)c3s2)c1	–
0.08 µM	0.012 µM	0.024 µM	Cn1cnc(-c2cc3nccc(Oc4ccc(NC(=S)N5CCN(c6ccccc6)C5=O)cc4F)c3s2)c1	–
0.16 µM	0.01 µM	0.043 µM	CN(C(=O)CC(=O)Nc1ccc(Oc2ccnc3cc(-c4cn(C)cn4)sc23)c(F)c1)c1ccccc1	–
0.37 µM	0.039 µM	0.035 µM	Cn1cnc(-c2cc3nccc(Oc4ccc(NC(=O)C5CCN(c6ccccc6)C5=O)cc4F)c3s2)c1 (stereo not drawn)	bioavailability [5]: 14%; half-life [4]: 1.1 h
0.06 µM	0.009 µM	0.028 µM	Cn1cnc(-c2cc3nccc(Oc4ccc(NC(=O)C5(C(=O)Nc6ccccc6)CC5)cc4F)c3s2)c1	–
0.31 µM	0.015 µM	0.028 µM	Cn1cnc(-c2cc3nccc(Oc4ccc(NC(=O)CC(=O)Nc5ccccc5)cc4F)c3s2)c1	–
1 µM	0.23 µM	0.067 µM	Cn1cnc(-c2cc3nccc(Oc4ccc(NC(=O)C5(C)CCN(c6ccccc6)C5=O)cc4F)c3s2)c1 (stereo not drawn)	–
0.06 µM	0.014 µM	0.034 µM	CN(C)CCn1cnc(-c2cc3nccc(Oc4ccc(NC(=O)N5CCN(c6ccccc6)C5=O)cc4F)c3s2)c1	–

The remaining lines, values behind:

SMILES	IC50 [1]	IC50 [2]	IC50 [3]	also measured
CC(C)n1cnc(-c2cc3nccc(Oc4ccc(NC(=O)C5CCN(c6ccccc6)C5=O)cc4F)c3s2)c1 (stereo not drawn)	0.21 µM	0.016 µM	0.039 µM	–
CNC(=O)N1CCN(Cc2ccc(-c3cc4nccc(Oc5ccc(NC(=O)N6CCN(c7ccccc7)C6=O)cc5F)c4s3)cc2)CC1	0.08 µM	0.008 µM	0.016 µM	–
CN(C)[C@H]1CCN(C(=O)c2cc3nccc(Oc4ccc(NC(=O)N5CCN(c6ccccc6)C5=O)cc4F)c3s2)C1	0.23 µM	0.023 µM	0.042 µM	–
CCn1cnc(-c2cc3nccc(Oc4ccc(NC(=O)N5CCN(c6ccccc6F)C5=O)cc4F)c3s2)c1	0.1 µM	0.003 µM	0.021 µM	–
Cn1ccnc1-c1cc2nccc(Oc3ccc(NC(=O)N4CCN(c5ccccc5)C4=O)cc3F)c2s1	0.12 µM	0.031 µM	0.026 µM	–
CC(C)n1cnc(-c2cc3nccc(Oc4ccc(NC(=O)C5CC(=O)N(c6ccccc6)C5)cc4F)c3s2)c1 (stereo not drawn)	–	0.8 µM	0.3 µM	–
O=C(Nc1ccc(Oc2ccnc3cc(-c4ccc(CN5CCNCC5)cc4)sc23)c(F)c1)N1CCN(c2ccccc2)C1=O	0.42 µM	0.011 µM	0.022 µM	–
CN1CCN(Cc2ccc(-c3cc4nccc(Oc5ccc(NC(=O)N6CCN(c7ccccc7)C6=O)cc5F)c4s3)cc2)CC1	0.25 µM	0.012 µM	0.029 µM	–
CCn1ccnc1-c1cc2nccc(Oc3ccc(NC(=O)N4CCN(c5ccccc5)C4=O)cc3F)c2s1	0.14 µM	0.026 µM	0.024 µM	–
CCn1cnc(-c2cc3nccc(Oc4ccc(NC(=O)N5CCN(c6ccccc6)C5=O)cc4F)c3s2)c1	0.04 µM	0.012 µM	0.025 µM	–
O=C(Nc1ccc(Oc2ccnc3cc(-c4cn(CCCN5CCCC5)cn4)sc23)c(F)c1)N1CCN(c2ccccc2)C1=O	0.3 µM	0.008 µM	0.021 µM	–
CN1CC=C(c2cc3nccc(Oc4ccc(NC(=O)N5CCN(c6ccccc6)C5=O)cc4F)c3s2)CC1	0.3 µM	0.17 µM	0.033 µM	–
CN1CCN(CCN(C)Cc2ccc(-c3cc4nccc(Oc5ccc(NC(=O)N6CCN(c7ccccc7)C6=O)cc5F)c4s3)cc2)CC1	0.83 µM	0.003 µM	0.028 µM	–
O=C(Nc1ccc(Oc2ccnc3cc(-c4cn(CCN5CCCC5)cn4)sc23)c(F)c1)N1CCN(c2ccccc2)C1=O	0.32 µM	0.02 µM	0.035 µM	–
CC(=O)c1cccc(-c2cc3nccc(Oc4ccc(NC(=O)N5CCN(c6ccccc6)C5=O)cc4F)c3s2)c1	0.27 µM	0.88 µM	0.2 µM	–
CCn1cnc(-c2cc3nccc(Oc4ccc(NC(=O)N5CCN(c6ccccc6OC)C5=O)cc4F)c3s2)c1	0.06 µM	0.014 µM	0.026 µM	–
CCn1cnc(-c2cc3nccc(Oc4ccc(NC(=O)N5CCN(c6ccc(F)cc6)C5=O)cc4F)c3s2)c1	0.05 µM	0.007 µM	0.027 µM	Activity (MKN-45 [6]): Active; IC50 (HUVEC [7]): 0.006 µM; IC50 (MKN-45 [8]): 0.01 µM; inhibition [9]: 99%; IC50 [10]: 0.001 µM; inhibition [11]: 99%; IC50 (HUVEC [12]): 0.006 µM; inhibition [13]: 100%; inhibition at 0.1 µM (HUVEC [14]): 98%; bioavailability [5]: 37%; IC50 (HCT-116): 13 µM; half-life [4]: 6.3 h; IC50 (HOS-TE85): 0.033 µM; inhibition [15]: 99%; IC50 (MDA-MB-231): 20 µM; inhibition [16]: 80%; inhibition [17]: 9%
